Literature values, collected in US20050013753A1, “Heat-transfer systems” (priority 2003, published 2005).
Where two headings read alike, the source gives them in different places.

Tests used:
rats [1] = conditions: in rats; DuPont MSDS
rabbits = conditions: in rabbits; DuPont MSDS
rats [2] = conditions: in rats, DuPont MSDS
[3] = animal data; DuPont MSDS
[4] = animal data; DuPont MSDS; remark: listed apart in the source
[5] = animal data; DuPont MSDS; remark: listed apart in the source
rats [6] = system: rats
rats [7] = conditions: repeated inhalation exposure
[8] = animal data
bacterial cells = conditions: in vitro
mammalian cells [9] = conditions: in vitro
mammalian cells [10] = system: mammalian cells
mouse = conditions: in vivo mouse
[11] = in water; DuPont MSDS
[12] = DuPont MSDS

With `OCCCO` [1,3-Propanediol, 1,3-propanediol] as the compound, how does the “Oral LD50” value (rats [1]) read?
The value was 15,000 mg/kg.

And the “Dermal LD50” value (rabbits)?
Its value is > 20,000 mg/kg.

And the “Inhalation 4 hour ALC” value (rats [2])?
The value was “Inhalation 4 hour ALC: >5.0 mg/L in rats”.

What about the Eye irritation [3] of the same compound?
The Eye irritation was “not an eye irritant”.

What about the Skin irritation [4] of the same compound?
The Skin irritation was “slight skin irritant”.

What about the Skin sensitization [5] of the same compound?
The Skin sensitization was “not a skin sensitizer”.

And the “Adverse effects to sperm and reproductive organs” value (rats [6]; oral repeated dose study in rats)?
The value was “no adverse effects to sperm and reproductive organs were observed”.

And the “Changes in clinical pathology, pathology (including sperm analyses), or in-life measurements” value (rats [6]; rats, repeated oral gavage)?
Its value is “no toxicologically important changes”.

And the NOEL (rats [6]; rats, repeated oral gavage, highest dose tested)?
Its NOEL is 1000 mg/kg/day.

And the “Changes in clinical pathology, pathology, or in-life measurements” value (rats [7])?
The value was “no toxicologically important changes”.

And the NOEL (rats [7])?
The NOEL was 1800 mg/m3.

What about the “Toxicity to the fetus” value [8] of the same compound?
Its value is “not uniquely toxic to the fetus”.

And the Mutagenicity (bacterial cells)?
The Mutagenicity was “not mutagenic”.

What about the Mutagenicity (mammalian cells [9]) of the same compound?
The Mutagenicity was “not mutagenic”.

And the “Chromosome aberrations, repeat study” value (mammalian cells [10]; 1,3-propanediol manufactured by DuPont)?
The value was “negative for all test conditions”.

And the Chromosome aberrations (mammalian cells [10]; under certain conditions)?
Its Chromosome aberrations is “An increase in chromosome aberrations was observed”.

What about the Micronucleus assay result (mouse) of the same compound?
The Micronucleus assay result was “negative”.

And the pH [11]?
Its pH is “pH: 4.5-7 in water. Color: Colorless”.

And the “Chemical Stability” value [12]?
Its value is “Chemical Stability: Stable at normal temperatures and storage conditions”.
